Experimental data as given in a melting point compilation (Tetko et al.).

| SMILES | melting point [°C] |
| --- | --- |
| CC(C)c1nnc(N)o1 | 184 to 186 |
| CC(NC(=O)CCl)c1cccs1 (stereo not given) | 92 to 94 |
| O=C(CCl)NNC(=O)C1CCC1 | 199 to 201 |
| O=C(CCl)Nc1ccc2[nH]c(C(F)(F)F)nc2c1 | 217 to 219 |
| Cc1nc(C(=O)O)ccc1C#N | 150 to 152 |
| c1cncc(NCc2ccco2)c1 | 45 to 49 |
| COc1ccc(CCNC(=O)C(C)Cl)cc1OC (stereo not given) | 76 to 78 |
| CS(=O)(=O)N(c1ccc(N)cc1Br)S(C)(=O)=O | 179 to 181 |
| CNC(=O)c1ccc([N+](=O)[O-])cc1Cl | 166 to 168 |
| NS(=O)(=O)NCc1ccccn1 | 138 to 140 |
| Nc1cnn(CC(=O)O)c1 | 206 to 208 |
| O=C(O)c1cnn(-c2ccccc2Cl)c1 | 170 to 172 |
| CC(=O)c1cnn(C)c1C | 47 to 49 |
| CC(O)CNc1nc2ccccc2[nH]1 (stereo not given) | 186 to 188 |
| COc1cc(F)c(N)cc1F | 80 to 82 |
| Cc1cnn(Cc2cc(C(=O)O)no2)c1 | 163 to 165 |
| CNS(=O)(=O)CC(=O)O | 119 to 121 |
| O=[N+]([O-])c1cccc(OCC2CO2)c1 (stereo not given) | 63 to 65 |
| ClCc1nnc(-c2ccccc2)o1 | 90 to 100 |
| CN1C(=O)C(C(N)=NO)=C(N)C12CCCC2 | 210 to 212 |
| CC1=NNC(=O)C1CCN (stereo not given) | 229 to 231 |
| CC(=O)c1cccc(OCc2cn3ccccc3n2)c1 | 77 to 79 |
| Clc1ccc(-c2cc3ncnc(Cl)c3s2)cc1 | 188 to 190 |
| Cn1c(-c2ccccc2)cc2cc[nH]c(=O)c21 | 201 to 203 |

| SMILES | melting point [°C] |
| --- | --- |
| Nc1cccc(Oc2ncccn2)c1 | 125 to 127 |
| CSc1cc(C(=O)O)c(Cl)cc1Cl | 192 to 194 |
| O=S(=O)(Nc1cn[nH]c1)c1ccccc1F | 186 to 188 |
| Nc1ccc(F)c(S(=O)(=O)NC2CC2)c1 | 107 to 109 |
| c1csc(-c2ncc[nH]2)c1 | 191 to 193 |
| CC(Cl)c1nnc(-c2ccc(Cl)c(Cl)c2)o1 (stereo not given) | 93 to 95 |
| O=C(O)c1noc(-c2cc(F)cc(F)c2)n1 | 136 to 138 |
| CC(Cl)C(=O)c1ccc(NS(C)(=O)=O)cc1 (stereo not given) | 189 to 192 |
| CC(C)Nc1ccc(C(=O)O)cn1 | 249 to 251 |
| Nc1ccc(CCN2CCSCC2)cc1 | 88 to 90 |
| CC(=O)c1cnc2ccsc2c1 | 132 to 134 |
| O=C1COc2cccc(F)c2N1 | 172 to 174 |
| O=C(O)C=Cc1cncc(F)c1 | 234 to 236 |
| O=C(O)C1CCN(c2ccccc2Br)C1=O (stereo not given) | 164 to 166 |
| CCC(Nc1ccccc1)C(N)=O (stereo not given) | 122 to 124 |
| CN(C)Cc1ccnc(N)c1 | 58 to 60 |
| CC(C)(C)OC(=O)NCc1cc[nH]n1 | 104 to 106 |
| O=C(O)c1n[nH]c(=O)c2ccccc12 | 230 to 232 |
| Cc1cc(N)cc2[nH]ncc12 | 179 to 181 |
| NC(=O)CNS(=O)(=O)c1c[nH]c(C(=O)O)c1 | 239 to 241 |
| O=C(O)c1cccc(-c2nnco2)c1 | 239 to 241 |
| N#Cc1ccc(Oc2ccc(F)c(Cl)c2)c(F)c1 | 97 to 99 |
| N#CCc1ccc(-n2cccn2)cc1 | 127 to 129 |
| N#CCN1C(=O)c2ccccc2C1=O | 125 to 127 |

| SMILES | melting point [°C] |
| --- | --- |
| Cc1nn(C)c(C)c1S(=O)(=O)NC(C)C(=O)O (stereo not given) | 197 to 199 |
| Ic1n[nH]c2ccsc12 | 174 to 176 |
| Nc1ccc(C(=O)NCCO)cc1 | 115 to 117 |
| CC1C(C(F)(F)F)OC(=O)N1c1ncccc1N (stereo not given) | 62 to 64 |
| COc1ccc(C(=O)NCC(=O)O)cc1[N+](=O)[O-] | 98 to 100 |
| O=C1CN(Cc2ccccc2)CCN1 | 150 to 152 |
| COc1ccc(SC)c(OC)c1C(=O)O | 117 to 119 |
| COC(=O)c1ccc(C#N)cc1OC | 101 to 103 |
| O=[N+]([O-])c1ccc(Oc2ccc([N+](=O)[O-])cc2)cc1 | 144 to 146 |
| Cn1c(N)c(C(=O)CCl)c(=O)[nH]c1=O | 356 to 358 |
| O=C(O)CNS(=O)(=O)c1ccc(Cl)c(Cl)c1 | 127 to 129 |
| O=C(O)c1ccc(O)c(-c2ccccc2)c1 | 142 to 144 |
| CCC(C)n1c(SCC(=O)O)nnc1-c1ccccc1 (stereo not given) | 155 to 157 |
| CSc1ccc2c(c1)CCCC2=O | 74 to 76 |
| CCn1ncc(C#N)c1N | 159 to 161 |
| NC(=O)CCSc1ccccc1F | 84 to 86 |
| N#CCS(=O)(=O)c1cc(Br)ccc1Br | 134 to 136 |
| Cc1sc([N+](=O)[O-])cc1[N+](=O)[O-] | 81 to 83 |
| O=C(O)c1cc2ccc(F)cc2[nH]1 | 227 to 229 |
| Cn1ncc(-c2nc(C3CC3)no2)c1N | 159 to 161 |
| CC(=O)N1CCN(C(=O)CCC(=O)O)CC1 | 110 to 116 |
| O=C(O)Cc1cccc(OCc2cccnc2)c1 | 139 to 141 |
| COC(=O)C1=NN(c2cccc(C(=O)O)c2)C(=O)C1CCO (stereo not given) | 211 to 213 |
| O=C1Nc2ccccc2C1=NO | 242 to 244 |

| SMILES | melting point [°C] |
| --- | --- |
| NC(=O)C(O)C1CCOC1 (stereo not given) | 84 to 86 |
| Cc1nc(C(=O)O)nn1-c1nnc[nH]1 | 225 to 227 |
| COC(=O)c1nc(-c2ccccc2)oc1N | 193 to 195 |
| NCC(CCC(=O)O)C(F)(F)F (stereo not given) | 155 to 157 |
| C1=C(c2c[nH]c3ncccc23)CCNC1 | 181 to 183 |
| O=C(O)CCn1c(=O)oc2cc(S(=O)(=O)N3CCCC3)ccc21 | 190 to 192 |
| O=S(=O)(NCCOc1ncc(C(F)(F)F)cc1Cl)c1c(F)cccc1F | 110 to 112 |
| Cc1cc(Br)cc(C)c1S(=O)(=O)Cl | 49 to 51 |
| Cn1ccc(C(=O)N2CCCCC2CC(=O)O)cc1=O (stereo not given) | 194 to 196 |
| Nc1ccc2c(c1)NC(=O)CS2 | 218 to 222 |
| O=C(Nc1cc(Cl)ccc1Cl)C1CCCCN1 (stereo not given) | 127 to 129 |
| Cc1ccc(C(=O)O)cc1S(=O)(=O)NCC#N | 212 to 214 |
| N#Cc1c(C(=O)O)cc(C2CC2)[nH]c1=S | 258 to 260 |
| O=C1NC2(CCN(Cc3ccccc3)CC2)CO1 | 164 to 166 |
| Nc1n[nH]c2nc3ccccc3cc12 | 314 to 316 |
| Nc1ccc(C(=O)NCc2ccccn2)c(Cl)c1 | 159 to 161 |
| O=C(O)c1cocn1 | 129 to 131 |
| Cc1cc(C)c(C(=O)CCCC(=O)O)c(C)c1 | 75 to 77 |
| N#Cc1cnc2ccccc2c1Cl | 128 to 130 |
| NCc1cccc(NC(=O)C2CC2)c1 | 96 to 98 |
| O=C(O)CCCCN1C(=O)C=CC1=O | 84 to 86 |
| CCOC(=O)c1cnn(-c2ccc(C(=O)O)cc2)c1C | 201 to 203 |
| Nc1cc(F)ccc1NC(=O)c1ccccn1 | 101 to 103 |
| COC(=O)C(C#N)c1nc2ccccc2nc1Cl (stereo not given) | 197 to 199 |

Second part, the compound after the results:

| melting point [°C] | SMILES |
| --- | --- |
| 60 to 62 | CC(C)(C)OC(=O)N[C@H]1C[C@H](N)C1 |
| 104 to 106 | O=C(c1ccccc1F)N1CCC(O)CC1 |
| 102 to 104 | CCN(C)C(=O)c1cccc(C(=O)O)c1 |
| 87 to 89 | O=C(O)C=NNc1ccc(F)cc1 |
| 149 to 151 | Nc1nc(-c2cc(Br)cs2)cs1 |
| 142 to 144 | NS(=O)(=O)Cc1ccc(Cl)nc1 |
| 164 to 166 | Cc1nnc(S)n1C1CCCCC1 |
| 139 to 141 | N#CCc1c[nH]c2ncccc12 |
| 132 to 134 | Nc1ccc(S(=O)(=O)Nc2cccc(Cl)c2)cc1 |
| 202 to 204 | CCCC(NC(=O)c1ccccc1)C(N)=S (stereo not given) |
| 45 to 47 | O=S(=O)(Cl)c1ccc(Cl)cc1C(F)(F)F |
| 151 to 153 | O=c1[nH]nnn1-c1cccs1 |
| 173 to 175 | O=C(O)c1ccc(-c2ccccc2F)o1 |
| 248 to 250 | O=C1COc2cc(S(=O)(=O)Cl)c(Cl)cc2N1 |
| 199 to 201 | Cc1ccc(SC2=C(C(=O)O)CCCC2)cc1 |
| 212 to 214 | O=C(O)c1ccc(Cl)c(N2CCCS2(=O)=O)c1 |
| 247 to 249 | N#Cc1ccc(Nc2cccc(C(=O)O)c2)cc1 |
| 248 to 250 | CC(C1CC2CCC1C2)n1c(N)cc(=O)[nH]c1=O (stereo not given) |
| 105 to 109 | Cc1ccc(S(=O)(=O)N2CCC(N)CC2)cc1 |
| 210 to 212 | O=C(O)c1ccc(N2C(=O)CCC2=O)cc1 |
| 296 to 298 | NC(=O)Nc1ccc(C(=O)O)cc1 |
| 213 to 215 | NS(=O)(=O)c1ccc2c(c1)CC(C(=O)O)CO2 (stereo not given) |
| 106 to 108 | CC(Cl)C(=O)N(C)C1CCS(=O)(=O)C1 (stereo not given) |
| 149 to 151 | CS(=O)(=O)CCS(N)(=O)=O |
| 239 to 241 | CCc1nc(C(=O)O)c[nH]1 |

| melting point [°C] | SMILES |
| --- | --- |
| 131 to 134 | CC(=O)Oc1cccc(C(=O)O)c1 |
| 145 to 147 | Cc1ccc(NC(=O)C2CCNCC2)nc1 |
| 192 to 194 | CCOC(=O)c1cc(C23CC4CC(CC(C4)C2)C3)[nH]n1 |
| 248 to 250 | CCCCc1c(C)nc2nc(S)nn2c1C |
| 90 to 92 | Cc1ccc(NC(=O)CO)c(Cl)c1 |
| 149 to 151 | Nc1nc(-c2ccccc2)no1 |
| 157 to 159 | Sc1nnnn1-c1ccc2c(c1)OCO2 |
| 109 to 111 | O=C1C=CC(=O)N1CCc1ccccc1 |
| 144 to 146 | NNc1ccc(-c2ccccc2)nn1 |
| 106 to 108 | CCOC(=O)c1c(NC(=O)CCl)sc(-c2ccccc2)c1C |
| 91 to 93 | CC(C)(C)OC(=O)N1CCC(N2CC(O)C2)CC1 |
| 90 to 92 | CC(C)Cc1cc(N)n(C)n1 |
| 90 to 92 | Cc1cccc(-n2nc(C(C)(C)C)cc2N)c1 |
| 269 to 271 | NC(CC1CCOC1)C(=O)O (stereo not given) |
| 199 to 201 | Cc1ccccc1-c1nnc(S)n1N |
| 111 to 113 | COc1ccc(C(C)=O)cc1CC#N |
| 224 to 226 | O=C(O)C=Cc1cn(-c2ccccc2)nc1-c1cccs1 |
| 285 to 287 | C=CCn1c(S)nc2cc3ccccc3cc2c1=O |
| 110 to 112 | CC(C)n1[nH]ccc1=NC(=O)Nc1ccccc1 |
| 178 to 180 | c1ccc(CN2CCOC(c3nn[nH]n3)C2)cc1 (stereo not given) |
| 319 to 321 | Nc1cc2c(=O)[nH]cnc2cc1F |
| 89 to 91 | COc1ccc(Br)cc1NCc1ccncc1 |
| 118 to 120 | NC(=S)c1ccccc1O |
| < 17 | CCOc1ccc(C2CCCN2)cc1 (stereo not given) |
